Activity calls are given as the source filed them. The calls are words filed in the database; no cut-off is given here.
How the values were obtained:
[1] = Binding affinity to poly A-poly U double stranded RNA by UV visible spectroscopy
[2] = test system: MCF7; assay: Antiproliferative activity against human MCF7 cells at 0.1 to 100 uM after 72 hrs by MTT assay; type: functional, cell-based
[3] = test system: Nucleic Acid; assay: Binding affinity to poly A-poly U double stranded RNA assessed as change in melting temperature at […] of 0.3 by thermal denaturation study; type: nucleic-acid assay
[4] = test system: Nucleic Acid; assay: Binding affinity to poly A-poly U double stranded RNA assessed as change in melting temperature at […] of 0.2 by thermal denaturation study; type: nucleic-acid assay
[5] = organism: Bos taurus; assay: Ratio of IC50 of ethidium bromide to IC50 of drug for calf thymus DNA by ethidium bromide displacement assay
[6] = Binding affinity to poly A-poly U double stranded RNA by CD spectroscopy
[7] = test system: Calf thymus DNA; assay: Binding affinity to calf thymus double stranded DNA assessed as change in melting temperature at drug to DNA ratio of 0.2 by thermal denaturation study; type: nucleic-acid assay; settings: Bos taurus
[8] = test system: Calf thymus DNA; assay: Binding affinity to calf thymus double stranded DNA minor groove at drug to DNA ratio of 0 to 0.2 by CD spectroscopy; type: nucleic-acid assay; settings: Bos taurus
[9] = test system: Calf thymus DNA; assay: Binding affinity to calf thymus double stranded DNA assessed as change in melting temperature at drug to DNA ratio of 0.05 by thermal denaturation study; type: nucleic-acid assay; settings: Bos taurus
[10] = test system: Calf thymus DNA; assay: Binding affinity to calf thymus double stranded DNA assessed as change in melting temperature at drug to DNA ratio of 0.3 by thermal denaturation study; type: nucleic-acid assay; settings: Bos taurus
[11] = test system: Calf thymus DNA; assay: Binding affinity to calf thymus double stranded DNA by UV visible spectroscopy; type: nucleic-acid assay; settings: Bos taurus
[12] = test system: Calf thymus DNA; assay: Binding affinity to calf thymus double stranded DNA assessed as change in melting temperature at drug to DNA ratio of 0.1 by thermal denaturation study; type: nucleic-acid assay; settings: Bos taurus
[13] = test system: Nucleic Acid; assay: Binding affinity to poly A-poly U double stranded RNA assessed as change in melting temperature at […] of 0.1 by thermal denaturation study; type: nucleic-acid assay
[14] = test system: HeLa; assay: Cell cycle distribution in human HeLa cells assessed as accumulation at G2/M phase at 1 uM after 24 hrs by propidium iodide-based flow cytometry; type: functional
[15] = test system: HeLa; assay: Cell cycle distribution in human HeLa cells assessed as accumulation at G2/M phase at 1 uM after 72 hrs by propidium iodide-based flow cytometry; type: functional
[16] = test system: MCF7; assay: Antiproliferative activity against human MCF7 cells at 0.1 uM after 72 hrs by MTT assay relative to control; type: functional; settings: MCF7, 72 h
[17] = test system: HeLa; assay: Cell cycle distribution in human HeLa cells assessed as accumulation at G0/G1 phase at 1 uM after 48 hrs by propidium iodide-based flow cytometry; type: functional
[18] = test system: HeLa; assay: Antiproliferative activity against human HeLa cells at 1 uM after 72 hrs by MTT assay relative to control; type: functional
[19] = test system: Trypanosoma cruzi; assay: Antitrypanosomal activity against Trypanosoma cruzi clone 14 epimastigotes after 8 days; type: functional, organism-based; settings: 192 h
[20] = test system: HeLa; assay: Cell cycle distribution in human HeLa cells assessed as accumulation at G0/G1 phase at 1 uM after 72 hrs by propidium iodide-based flow cytometry; type: functional
[21] = test system: HEp-2; assay: Antiproliferative activity against human Hep2 cells at 1 uM after 72 hrs by MTT assay relative to control; type: functional; settings: HEp-2, 72 h
[22] = test system: NCI-H358; assay: Antiproliferative activity against human NCI-H358 cells at 0.1 to 100 uM after 72 hrs by MTT assay; type: functional, cell-based
[23] = test system: Trypanosoma cruzi; assay: Antitrypanosomal activity against Trypanosoma cruzi clone 14 epimastigotes on day 5; type: functional, organism-based; settings: 120 h
[24] = test system: Caco-2; assay: Antiproliferative activity against human Caco-2 cells at 0.1 to 100 uM after 72 hrs by MTT assay; type: functional, cell-based
[25] = test system: HeLa; assay: Cell cycle distribution in human HeLa cells assessed as accumulation at G2/M phase at 1 uM after 48 hrs by propidium iodide-based flow cytometry; type: functional
[26] = test system: MIA PaCa-2; assay: Antiproliferative activity against human MIAPaCa2 cells at 0.1 to 100 uM after 72 hrs by MTT assay; type: functional, cell-based
[27] = test system: HeLa; assay: Cell cycle distribution in human HeLa cells assessed as accumulation at S phase at 1 uM after 72 hrs by propidium iodide-based flow cytometry; type: functional
[28] = test system: HEp-2; assay: Antiproliferative activity against human Hep2 cells at 0.1 to 100 uM after 72 hrs by MTT assay; type: functional, cell-based
[29] = test system: HeLa; assay: Antiproliferative activity against human HeLa cells at 0.1 to 100 uM after 72 hrs by MTT assay; type: functional, cell-based
[30] = test system: AGS; assay: Antiproliferative activity against human AGS cells at 0.1 to 100 uM after 72 hrs by MTT assay; type: functional, cell-based
[31] = test system: HT-29; assay: Antiproliferative activity against human HT-29 cells at 0.1 to 100 uM after 72 hrs by MTT assay; type: functional, cell-based
[32] = test system: HeLa; assay: Cell cycle distribution in human HeLa cells assessed as accumulation at S phase at 1 uM after 48 hrs by propidium iodide-based flow cytometry; type: functional
[33] = test system: HeLa; assay: Cell cycle distribution in human HeLa cells assessed as accumulation at G2/M phase at 10 uM after 72 hrs by propidium iodide-based flow cytometry; type: functional
[34] = test system: HeLa; assay: Cell cycle distribution in human HeLa cells assessed as accumulation at S phase at 10 uM after 72 hrs by propidium iodide-based flow cytometry; type: functional
[35] = test system: HeLa; assay: Cell cycle distribution in human HeLa cells assessed as accumulation at G2/M phase at 10 uM after 24 hrs by propidium iodide-based flow cytometry; type: functional
[36] = test system: HeLa; assay: Cell cycle distribution in human HeLa cells assessed as accumulation at G2/M phase at 10 uM after 48 hrs by propidium iodide-based flow cytometry; type: functional
[37] = test system: HeLa; assay: Cell cycle distribution in human HeLa cells assessed as accumulation at G0/G1 phase at 10 uM after 48 hrs by propidium iodide-based flow cytometry; type: functional
[38] = test system: HeLa; assay: Cell cycle distribution in human HeLa cells assessed as accumulation at S phase at 10 uM after 48 hrs by propidium iodide-based flow cytometry; type: functional
[39] = test system: HeLa; assay: Cell cycle distribution in human HeLa cells assessed as accumulation at G0/G1 phase at 10 uM after 72 hrs by propidium iodide-based flow cytometry; type: functional

Row | SMILES | Activity [1] | Activity [2] | ΔTm [3] [°C] | ΔTm [4] [°C] | Ratio IC50 [5] | Activity [6] | ΔTm [7] [°C] | Activity [8] | ΔTm [9] [°C] | ΔTm [10] [°C] | Activity [11] | ΔTm [12] [°C] | ΔTm [13] [°C] | other results
1 | N=C(N)c1ccc2nc(-c3sc(-c4nc5ccc(C(=N)N)cc5[nH]4)c4c3OCCO4)[nH]c2c1 | Active | Active | -0.9 | -0.3 | 0.48 | Active | 13.9 | Active | 12.7 | 12.9 | Active | 14.4 | – | –
2 | c1cc2nc(-c3sc(-c4nc5ccc(C6=NCCN6)cc5[nH]4)c4c3OCCO4)[nH]c2cc1C1=NCCN1 | Active | Active | -0.2 | 0.3 | 0.38 | Active | 11.4 | Active | 12.2 | 12.3 | Active | 11.9 | 0.4 | –
3 | CC(C)NC(=N)c1ccc2nc(-c3sc(-c4nc5ccc(C(=N)NC(C)C)cc5[nH]4)c4c3OCCO4)[nH]c2c1.Cl.Cl | Active | Active | – | 0.8 | 0.38 | Active | > 15.4 | Active | 11.7 | – | Active | > 15.4 | 0.9 | Activity [14]: Active; Activity [15]: 15.2%; inhibition at 0.1 µM [16]: 40%; Activity [17]: 46.9%; inhibition at 1 µM [18]: 40%; IC50 [19]: 2.4 µM; Activity [20]: 30.7%; inhibition at 1 µM [21]: 80%; Activity [22]: Active; IC50 [23]: 4.25 µM; Activity [24]: Active; Activity [25]: 35%; Activity [26]: Active; Activity [27]: 49.8%; Activity [28]: Active; Activity [29]: Active; Activity [30]: Active; Activity [31]: Active; Activity [32]: 22.4%
4 | CN1CCN(c2ccc3[nH]c(-c4ccc5[nH]c(-c6ccc(O)cc6)nc5c4)nc3c2)CC1 [HOECHST 33258] | – | Active | – | – | – | – | – | – | – | – | – | – | – | Activity [33]: 29.9%; Activity [34]: 46.3%; Activity [35]: inactive; Activity [36]: 23.9%; Activity [37]: 33.6%; Activity [38]: 23.4%; Activity [39]: 43.1%

— ChEMBL document CHEMBL1152775, “Effect of 3,4-ethylenedioxy-extension of thiophene core on the DNA/RNA binding properties and biological activity of bisbenzimidazole amidines” (Bioorg Med Chem, 2009)
